Results: patent US20210163404A1, “NOVEL UREA COMPOUNDS AND BIOISOSTERES THEREOF AND THEIR USE FOR TREATING INFLAMMATION AND INFLAMMATION-RELATED PATHOLOGIES” (UNIVERSITÉ LAVAL, priority 2017, published 2021)
“And” between values parts separate entries of the source, which are not always exact repeats. Equal values may be shown once. Blank lines part the entries; values can stand above or below the compound they belong to.

Legend:
[1] = system: HaCaT keratinocyte cell line; assay: Antiproliferative activity (NCI procedure, sulforhodamine B), HaCaT; type: cell-based, human; details: Homo sapiens, HaCaT, unit inferred, tested 781 nM to 100 μM, 48 h
Experimental: (§1) The antiproliferative activity of compounds 3a-b, 4a-e, 5a-e and 6a-e was subsequently evaluated using the human HT-29 colon adenocarcinoma and the A549 adenocarcinoma alveolar epithelial cancer cell lines, the HaCaT spontaneously transformed aneuploid immortal keratinocyte cell line and the HDFn neonatal dermal fibroblast cell line (Table 2). Cell growth inhibition was assessed according to the NCI/NIH Developmental Therapeutics Program.
(§2) The antiproliferative activity assay of all compounds was assessed using the procedure recommended by the National Cancer Institute for its drug screening program with minor modifications. Briefly, 96-well microtiter plates were seeded with 75 μL of a suspension of either HaCaT (5×10^3), HT-29 (3.0×10^3), A549 (3.0×10^3) or HDFn (3×10^3) cells per well in DMEM and incubated for 24 h at 37° C. in a moisture-saturated atmosphere containing 5% CO2. Compounds freshly solubilized in DMSO (40 mM) were diluted in fresh DMEM, and 75 μL aliquots containing serially diluted concentrations of the compound were added. Final compound concentrations ranged from 100 μM to 781 nM. DMSO was maintained at a concentration of <0.5% (v/v) to avoid any related cytotoxicity. Plates were subsequently incubated for 48 h. Cell growth was then stopped by the addition of cold trichloroacetic acid to the wells (10% w/v, final concentration), followed by a 1 h incubation period at 4° C. The plates were washed 4-times with water. A sulforhodamine B solution (75 μL; 0.1% w/v) in acetic acid (1%) was subsequently added to each well and the plates incubated over a 15 min period while at room temperature. After staining, any unbound dye was removed by washing 4-times with an acetic acid solution (1%). Bound dye was solubilized in 20 mM Tris base and the absorbance was measured at an optimal wavelength (530-568 nm) using a μQuant® Universal microplate spectrophotometer (BioTek, Winooski, Vt.). The measurements for treated cells were compared with measurements from control cell plates fixed on treatment day and the percentage of cell growth inhibition was calculated for each drug. The experiments were performed at least twice in triplicate. The assays were considered valid when the coefficient of variation for a given set of conditions and within the same experiment was <10%.

[2] = system: A549 adenocarcinoma alveolar epithelial cancer cells; assay: Antiproliferative activity (NCI procedure, sulforhodamine B), A549; type: cell-based, human; details: Homo sapiens, A549, unit inferred, tested 781 nM to 100 μM, 48 h
Experimental: as §1, §2

[3] = system: HDFn neonatal dermal fibroblast cell line; assay: Antiproliferative activity (NCI procedure, sulforhodamine B), HDFn; type: cell-based, human; details: Homo sapiens, Fibroblast, unit inferred, tested 781 nM to 100 μM, 48 h
Experimental: as §1, §2

[4] = system: HT-29 colon adenocarcinoma cells; assay: Antiproliferative activity (NCI procedure, sulforhodamine B), HT-29; type: cell-based, human; details: Homo sapiens, HT-29, unit inferred, tested 781 nM to 100 μM, 48 h
Experimental: as §1, §2

SMILES: CC(C)NC(=O)Nc1ccc(I)cc1 [Compound 1]
IC50 ([1]; Table 5): 91.9 µM
IC50 ([2]; Table 5): 81.9 µM
IC50 ([3]; Table 5): 83.6 µM
IC50 ([4]; Table 5): 54.8 µM

melting point: 192 to 194 °C
SMILES: O=C(NCC1CC1)Nc1ccc(I)cc1 [Compound 21, 1-(Cyclopropylmethyl)-3-(4-iodophenyl)urea]

melting point: 208 to 210 °C
SMILES: O=C(Nc1ccc(I)cc1)NC1CCC1 [Compound 22, 1-Cyclobutyl-3-(4-iodophenyl)urea]

melting point: 158 to 161 °C and 158 to 162 °C
SMILES: O=C(NCC1CCCC1)Nc1ccc(I)cc1 [Compound 25, 1-(Cyclopentylmethyl)-3-(4-iodophenyl)urea]

SMILES: O=c1c(Nc2ccc(I)cc2)c(NC2CC2)c1=O [Compound 70]
IC50 ([1]; Table 7): > 100 µM
IC50 ([2]; Table 7): > 100 µM
IC50 ([3]; Table 7): > 100 µM
IC50 ([4]; Table 7): > 100 µM

SMILES: O=c1c(NCC2CCC2)c(Nc2ccc(I)cc2)c1=O [Compound 71]
IC50 ([1]; Table 7): > 100 µM
IC50 ([2]; Table 7): > 100 µM
IC50 ([3]; Table 7): > 100 µM
IC50 ([4]; Table 7): > 100 µM

SMILES: O=c1c(Nc2ccc(I)cc2)c(NC2CCCC2)c1=O [Compound 72]
IC50 ([1]; Table 7): 10.6 µM
IC50 ([2]; Table 7): 8 µM
IC50 ([3]; Table 7): 6.9 µM
IC50 ([4]; Table 7): 10 µM

SMILES: O=c1c(Nc2cccc(I)c2)c(NC2CC2)c1=O [Compound 73]
IC50 ([1]; Table 7): 37.7 µM
IC50 ([2]; Table 7): 26.8 µM
IC50 ([3]; Table 7): 19.6 µM
IC50 ([4]; Table 7): 39.8 µM

SMILES: O=c1c(NCC2CCC2)c(Nc2cccc(I)c2)c1=O [Compound 74]
IC50 ([1]; Table 7): 10.9 µM
IC50 ([2]; Table 7): 8.3 µM
IC50 ([3]; Table 7): 4.1 µM
IC50 ([4]; Table 7): 15 µM

SMILES: O=c1c(Nc2cccc(I)c2)c(NC2CCCC2)c1=O [Compound 75]
IC50 ([1]; Table 7): 11.8 µM
IC50 ([2]; Table 7): 9 µM
IC50 ([3]; Table 7): 4.6 µM
IC50 ([4]; Table 7): 15.2 µM

SMILES: O=c1c(Nc2ccc(C3CCCCC3)cc2)c(NC2CC2)c1=O [Compound 76]
IC50 ([1]; Table 7): > 100 µM
IC50 ([2]; Table 7): 74 µM
IC50 ([3]; Table 7): > 100 µM
IC50 ([4]; Table 7): > 100 µM

SMILES: O=c1c(NCC2CCC2)c(Nc2ccc(C3CCCCC3)cc2)c1=O [Compound 77]
IC50 ([1]; Table 7): > 100 µM
IC50 ([2]; Table 7): 89.6 µM
IC50 ([3]; Table 7): > 100 µM
IC50 ([4]; Table 7): > 100 µM

SMILES: O=c1c(Nc2ccc(C3CCCCC3)cc2)c(NC2CCCC2)c1=O [Compound 78]
IC50 ([1]; Table 7): > 100 µM
IC50 ([2]; Table 7): 96.1 µM
IC50 ([3]; Table 7): > 100 µM
IC50 ([4]; Table 7): > 100 µM

SMILES: O=c1c(Nc2cccc(C3CCCCC3)c2)c(NC2CC2)c1=O [Compound 79]
IC50 ([1]; Table 7): 11 µM
IC50 ([2]; Table 7): 8 µM
IC50 ([3]; Table 7): 4.3 µM
IC50 ([4]; Table 7): 7.9 µM

SMILES: O=c1c(NCC2CCC2)c(Nc2cccc(C3CCCCC3)c2)c1=O [Compound 80]
IC50 ([1]; Table 7): 6 µM
IC50 ([2]; Table 7): 4.2 µM
IC50 ([3]; Table 7): 1.9 µM
IC50 ([4]; Table 7): 4.5 µM

SMILES: O=c1c(Nc2cccc(C3CCCCC3)c2)c(NC2CCCC2)c1=O [Compound 81]
IC50 ([1]; Table 7): 5.6 µM
IC50 ([2]; Table 7): 3.7 µM
IC50 ([3]; Table 7): 1.9 µM
IC50 ([4]; Table 7): 4.3 µM

SMILES: CC(C)(C)c1ccc(Nc2c(NC3CC3)c(=O)c2=O)cc1 [Compound 82]
IC50 ([1]; Table 7): 47.9 µM
IC50 ([2]; Table 7): 17.9 µM
IC50 ([3]; Table 7): 13.2 µM
IC50 ([4]; Table 7): 18.7 µM

SMILES: CC(C)(C)c1ccc(Nc2c(NCC3CCC3)c(=O)c2=O)cc1 [Compound 83]
IC50 ([1]; Table 7): > 100 µM
IC50 ([2]; Table 7): > 100 µM
IC50 ([3]; Table 7): > 100 µM
IC50 ([4]; Table 7): > 100 µM

SMILES: CC(C)(C)c1ccc(Nc2c(NC3CCCC3)c(=O)c2=O)cc1 [Compound 84]
IC50 ([1]; Table 7): > 100 µM
IC50 ([2]; Table 7): 15.1 µM
IC50 ([3]; Table 7): > 100 µM
IC50 ([4]; Table 7): > 100 µM

SMILES: CC(C)(C)c1cccc(Nc2c(NC3CC3)c(=O)c2=O)c1 [Compound 85]
IC50 ([1]; Table 7): 81.4 µM
IC50 ([2]; Table 7): 40.8 µM
IC50 ([3]; Table 7): 57.3 µM
IC50 ([4]; Table 7): 64.1 µM

SMILES: CC(C)(C)c1cccc(Nc2c(NCC3CCC3)c(=O)c2=O)c1 [Compound 86]
IC50 ([1]; Table 7): 56.1 µM
IC50 ([2]; Table 7): 13.7 µM
IC50 ([3]; Table 7): 3.8 µM
IC50 ([4]; Table 7): 14.8 µM

SMILES: CC(C)(C)c1cccc(Nc2c(NC3CCCC3)c(=O)c2=O)c1 [Compound 87]
IC50 ([1]; Table 7): 5.5 µM
IC50 ([2]; Table 7): 4 µM
IC50 ([3]; Table 7): 2.8 µM
IC50 ([4]; Table 7): 4.3 µM

SMILES: CCNC(=S)Nc1cccc(C2CCCCC2)c1 [Compound 104]
IC50 ([1]; Table 8): 19.3 µM
IC50 ([2]; Table 8): 22.4 µM
IC50 ([3]; Table 8): 12.9 µM
IC50 ([4]; Table 8): 17.9 µM
